Laboratory results published in ChEMBL document CHEMBL5727267, “Compounds useful as inhibitors of ATR kinase” (2019).

Each molecule was assayed against Serine/threonine-protein kinase ATR (Homo sapiens, UniProt Q13535) (assay: Inhibition Assay: Compounds were screened for their ability to inhibit ATR kinase using a radioactive-phosphate incorporation assay. Assays were carried out in a mixture of 50 mM Tris/HCl (pH 7.5), 10 mM MgCl2 and 1 mM DTT. Final substrate concentrations were 10 μM [γ-33P]ATP (3mCi 33P ATP/mmol ATP, Perkin Elmer) and 800 μM target peptide ([…]) (SEQ ID NO:1).Assays were carried out at 25° C. in the presence of 5 nM full-length ATR. An assay stock buffer solution was prepared containing all of the reagents listed above, with the exception of ATP and the test compound of interest. 13.5 μL of the stock solution was placed in a 96 well plate followed by addition of 2 μL of DMSO stock containing serial dilutions of the test compound (typically starting from a final concentration of 15 μM with 3-fold serial dilutions) in duplicate (final DMSO concentration 7%). The plate was pre-incubated for 10 minutes at 25° C. and the reaction initiated by addition of 15 μL [γ-33P]ATP (final concentration 10 μM).The reaction was stopped after 24 hours by the addition of 30 μL 0.1M phosphoric acid containing 2 mM ATP. A multiscreen phosphocellulose filter 96-well plate (Millipore, Cat no. MAPHN0B50) was pretreated with 100 μL 0.2M phosphoric acid prior to the addition of […] of the stopped assay mixture. The plate was washed with 5×200 μL 0.2M phosphoric acid. After drying, 100 μL Optiphase ‘SuperMix’ liquid scintillation cocktail (Perkin Elmer) was added to the well prior to scintillation counting (1450 Microbeta Liquid Scintillation Counter, Wallac).).
Serine/threonine-protein kinase ATR, sequence (Q13535 whole entry): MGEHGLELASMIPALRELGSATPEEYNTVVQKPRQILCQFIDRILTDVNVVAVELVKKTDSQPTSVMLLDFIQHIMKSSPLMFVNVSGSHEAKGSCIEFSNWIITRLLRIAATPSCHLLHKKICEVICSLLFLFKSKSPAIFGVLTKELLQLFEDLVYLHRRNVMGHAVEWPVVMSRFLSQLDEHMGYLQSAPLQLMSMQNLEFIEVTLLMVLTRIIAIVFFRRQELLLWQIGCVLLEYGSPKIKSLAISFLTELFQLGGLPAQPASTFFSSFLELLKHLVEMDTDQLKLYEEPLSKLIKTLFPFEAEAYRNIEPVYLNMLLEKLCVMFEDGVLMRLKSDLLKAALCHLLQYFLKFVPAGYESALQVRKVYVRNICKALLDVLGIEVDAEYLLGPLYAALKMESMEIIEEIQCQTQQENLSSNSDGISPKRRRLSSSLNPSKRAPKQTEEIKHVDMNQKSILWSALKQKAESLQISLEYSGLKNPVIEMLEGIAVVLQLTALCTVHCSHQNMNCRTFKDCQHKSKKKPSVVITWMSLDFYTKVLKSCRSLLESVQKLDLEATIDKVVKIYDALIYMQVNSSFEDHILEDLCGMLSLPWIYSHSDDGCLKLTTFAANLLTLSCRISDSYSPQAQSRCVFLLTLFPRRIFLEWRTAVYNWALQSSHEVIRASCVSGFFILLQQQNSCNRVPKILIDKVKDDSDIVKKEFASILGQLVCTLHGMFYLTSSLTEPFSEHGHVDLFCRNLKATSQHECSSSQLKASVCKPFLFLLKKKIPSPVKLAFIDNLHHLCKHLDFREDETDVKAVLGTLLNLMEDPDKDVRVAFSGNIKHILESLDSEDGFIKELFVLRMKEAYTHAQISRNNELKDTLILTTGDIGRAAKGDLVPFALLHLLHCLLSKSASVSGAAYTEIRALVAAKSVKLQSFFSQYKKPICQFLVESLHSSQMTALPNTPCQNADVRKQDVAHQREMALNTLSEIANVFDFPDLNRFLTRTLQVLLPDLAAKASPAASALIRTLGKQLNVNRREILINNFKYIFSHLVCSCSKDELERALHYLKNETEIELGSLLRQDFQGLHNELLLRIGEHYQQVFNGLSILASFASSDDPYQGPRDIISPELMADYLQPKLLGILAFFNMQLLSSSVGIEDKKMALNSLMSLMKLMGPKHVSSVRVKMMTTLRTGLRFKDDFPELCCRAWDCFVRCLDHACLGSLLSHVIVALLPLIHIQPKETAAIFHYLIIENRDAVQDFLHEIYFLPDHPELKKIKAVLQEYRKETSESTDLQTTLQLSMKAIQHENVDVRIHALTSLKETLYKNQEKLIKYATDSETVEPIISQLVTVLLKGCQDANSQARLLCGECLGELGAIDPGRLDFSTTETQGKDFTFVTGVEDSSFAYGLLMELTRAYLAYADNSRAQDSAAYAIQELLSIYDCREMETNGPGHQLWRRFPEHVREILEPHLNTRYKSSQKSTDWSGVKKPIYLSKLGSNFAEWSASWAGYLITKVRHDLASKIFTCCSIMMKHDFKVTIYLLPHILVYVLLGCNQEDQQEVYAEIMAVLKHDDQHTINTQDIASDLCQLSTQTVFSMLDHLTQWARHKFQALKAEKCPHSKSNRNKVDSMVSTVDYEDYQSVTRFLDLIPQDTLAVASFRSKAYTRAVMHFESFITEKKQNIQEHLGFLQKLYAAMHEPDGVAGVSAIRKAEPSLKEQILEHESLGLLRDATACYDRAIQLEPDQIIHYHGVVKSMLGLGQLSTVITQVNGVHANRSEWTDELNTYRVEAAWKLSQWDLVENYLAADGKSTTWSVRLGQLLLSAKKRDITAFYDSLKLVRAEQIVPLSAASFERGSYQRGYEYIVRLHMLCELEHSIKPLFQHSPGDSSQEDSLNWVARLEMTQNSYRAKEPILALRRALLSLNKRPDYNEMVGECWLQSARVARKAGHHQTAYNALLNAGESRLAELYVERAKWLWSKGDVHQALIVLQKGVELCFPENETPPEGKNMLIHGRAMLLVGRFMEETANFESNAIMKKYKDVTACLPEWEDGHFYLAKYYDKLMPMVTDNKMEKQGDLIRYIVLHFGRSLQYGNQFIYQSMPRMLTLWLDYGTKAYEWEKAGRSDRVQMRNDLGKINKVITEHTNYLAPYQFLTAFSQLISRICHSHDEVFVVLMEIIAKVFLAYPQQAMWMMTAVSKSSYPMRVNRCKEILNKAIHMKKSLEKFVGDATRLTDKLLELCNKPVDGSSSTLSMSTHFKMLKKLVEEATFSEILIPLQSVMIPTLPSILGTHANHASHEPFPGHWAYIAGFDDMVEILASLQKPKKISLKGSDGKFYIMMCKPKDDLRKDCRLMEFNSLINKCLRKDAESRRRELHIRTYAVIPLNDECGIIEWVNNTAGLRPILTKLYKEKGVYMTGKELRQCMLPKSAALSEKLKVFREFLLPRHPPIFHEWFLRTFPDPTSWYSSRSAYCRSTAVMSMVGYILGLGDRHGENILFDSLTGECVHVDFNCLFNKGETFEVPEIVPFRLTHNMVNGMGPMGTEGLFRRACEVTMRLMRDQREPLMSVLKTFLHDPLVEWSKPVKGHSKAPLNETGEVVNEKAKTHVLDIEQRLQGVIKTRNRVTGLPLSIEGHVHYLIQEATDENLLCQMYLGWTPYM

Ki	SMILES
< 10 nM	N#CCc1cnc2c(C(=O)Nc3cnccc3O[C@H]3CCNC3)c(N)nn2c1
10 to 1000 nM	CC(=O)N1CCN(c2ccncc2NC(=O)c2c(N)nn3cc(F)cnc23)CC1
< 10 nM	Nc1nn2cc(F)cnc2c1C(=O)Nc1cncc(F)c1N1CCC(C(=O)N2CCC(N3CCC3)CC2)CC1
